Results from US5696083A, “Personal care composition containing pyrithione and polymyxin” (Olin Corporation, priority 1994, dated 1997).

Key:
Type in all cases: cell-based
Alcaligens faecalis = test: MIC in Tryptic Soy Broth, compounds alone and in mixtures; conditions: Table 2, 28° C., 6 days
Method: (§1) Determinations of minimum inhibitory concentrations (MIC's) of the two compounds (pyrithione salts and/or polymyxin sulfate) in a nutrient broth (alone and in mixtures) were conducted to evaluate interactions. Stock solutions of pyrithione salts and/or polymyxin salts were diluted in Tryptic Soy Broth (Difco), and the dilutions were inoculated with an equal volume of bacterial culture (10^6 /ml) or fungal spore suspension (10^5 /ml) in Tryptic Soy Broth and incubated at 28° C. for 3-7 days.
(§2) The interactions of the antimicrobials were determined according to accepted procedures (M. C. Berenbaum [Tables 1 and 2] and P. F. Dougherty "Microdilution Transfer Plate Technique for Determining In Vitro Synergy of Antimicrobial Agents", ANTIMICROBIAL AGENTS AND CHEMOTHERAPY, Vol. 11, No. 2, p. 225-228 (Feb. 1977, American Society for Microbiology) [Tables 3 and 4]). The concentration of each agent in the combination that inhibits the organisms is expressed as a fraction of the concentration that causes the same effect when the same agent is tested alone (i.e., its fractional inhibitory concentration, FIC). If the sum of the FIC's is 1, the combination is additive in its antimicrobial effect; if the sum is <1, the combination is synergistic; and if the sum is >1, the combination is antagonistic.
(§3) ^a Compounds were serially diluted in Tryptic soy Broth (DIFCO),
(§4) ^b Each dilution contained 10^6 bacteria/ml of 10^5 fungi/ml.
(§5) ^a Stock solutions of ZP in dimethylsulfoxide and PB in sterile water

Aspergillus niger = test: as above; conditions: Table 2, 28° C., 7 days
Method: as §1, §2, §3, §4, §5

Aureobasidium pullulans = test: as above; conditions: Table 2, 28° C., 7 days
Method: as §1, §2, §3, §4, §5

Candida albicans [1] = test: as above; conditions: Table 2, 28° C., 7 days
Method: as §1, §2, §3, §4, §5

Cephalosporium sp. = test: as above; conditions: Table 2, 28° C., 7 days
Method: as §1, §2, §3, §4, §5

Chaetomium globosium = test: as above; conditions: Table 2, 28° C., 7 days
Method: as §1, §2, §3, §4, §5

Citrobacter freundii = test: as above; conditions: Table 2, 28° C., 6 days
Method: as §1, §2, §3, §4, §5

Fusarium solani = test: as above; conditions: Table 2, 28° C., 7 days
Method: as §1, §2, §3, §4, §5

Gliocladium virens = test: as above; conditions: Table 2, 28° C., 7 days
Method: as §1, §2, §3, §4, §5

Penicillin pinophilium = test: as above; conditions: Table 2, 28° C., 7 days
Method: as §1, §2, §3, §4, §5

Proteus mirabilis [2] = test: as above; conditions: Table 2, 28° C., 6 days
Method: as §1, §2, §3, §4, §5

Pseudomonas Stutzeri = test: as above; conditions: Table 2, 28° C., 6 days
Method: as §1, §2, §3, §4, §5

Pseudomonas aeruginosa [3] = test: as above; conditions: Table 2, 28° C., 6 days
Method: as §1, §2, §3, §4, §5

Pseudomonas fluorescens [4] = test: as above; conditions: Table 2, 28° C., 6 days
Method: as §1, §2, §3, §4, §5

Pseudomonas oleovorans = test: as above; conditions: Table 2, 28° C., 6 days
Method: as §1, §2, §3, §4, §5

Pseudomonas rubescens = test: as above; conditions: Table 2, 28° C., 6 days
Method: as §1, §2, §3, §4, §5

[5] = test system: Trichophyton mentagrophytes; test: as above; conditions: Table 2, 28° C., 7 days
Method: as §1, §2, §3, §4, §5

Fusarium sp. = test: as above; conditions: Table 2, 28° C., 7 days
Source text: as §3, §4, §5

Candida albicans [6] = test: Checkerboard MIC Test in Tryptic Soy Broth; conditions: Table 4, 28° C., 5 days
Method: as §1, §2, §4

Proteus mirabilis [7] = test: Checkerboard MIC Test in Tryptic Soy Broth; conditions: Table 4, 28° C., 3 days
Method: as §1, §2, §4

Pseudomonas aeruginosa [8] = test: Checkerboard MIC Test in Tryptic Soy Broth; conditions: Table 4, 28° C., 3 days
Method: as §1, §2, §4

Pseudomonas fluorescens [9] = test: Checkerboard MIC Test in Tryptic Soy Broth; conditions: Table 4, 28° C., 3 days
Method: as §1, §2, §4

[10] = test system: Trichophyton mentagrophytes; test: Checkerboard MIC Test in Tryptic Soy Broth; conditions: Table 4, 28° C., 5 days
Method: as §1, §2, §4

[11] = alone, Tryptic Soy Broth, PB sulfate 7730 units/mg
[12] = concentration of the component in ZP+PB mixture, ZP/PB ratio 1/32-1/8
[13] = concentration of the component in ZP+PB mixture, ZP/PB ratio 1/8-1
[14] = alone, checkerboard, PE methanesulfonate, Na+, 14,310 units/mg

zinc pyrithione [ZP]
Minimum Inhibitory Concentration, Compound Used Alone (Alcaligens faecalis; [11]): 10.7 ppm | Minimum Inhibitory Concentration, Mixture (Alcaligens faecalis; concentration of the component in ZP+PB mixture, ZP/PB ratio 8-32): 6.7 ppm | Minimum Inhibitory Concentration, Compound Used Alone (Aspergillus niger; [11]): 32.0 ppm | Minimum Inhibitory Concentration, Mixture (Aspergillus niger; [12]): 16.0 ppm | Minimum Inhibitory Concentration, Compound Used Alone (Aureobasidium pullulans; [11]): 8.0 ppm | Minimum Inhibitory Concentration, Mixture (Aureobasidium pullulans; concentration of the component in ZP+PB mixture, ZP/PB ratio 1/32-1/16): 4.0 ppm | Minimum Inhibitory Concentration, Compound Used Alone (Candida albicans [1]; [11]): 8.0 ppm | Minimum Inhibitory Concentration, Mixture (Candida albicans [1]; [12]): 4.0 ppm | Minimum Inhibitory Concentration, Compound Used Alone (Cephalosporium sp.; [11]): 16.0 ppm | Minimum Inhibitory Concentration, Mixture (Cephalosporium sp.; concentration of the component in ZP+PB mixture, ZP/PB ratio 1/16-1/8): 4.0 ppm | Minimum Inhibitory Concentration, Compound Used Alone (Chaetomium globosium; [11]): 67.0 ppm | Minimum Inhibitory Concentration, Mixture (Chaetomium globosium; [13]): 13.3 ppm | Minimum Inhibitory Concentration, Compound Used Alone (Citrobacter freundii; [11]): 8.0 ppm | Minimum Inhibitory Concentration, Mixture (Citrobacter freundii; concentration of the component in ZP+PB mixture, ZP/PB ratio 16-64): 3.3 ppm | Minimum Inhibitory Concentration, Compound Used Alone (Fusarium solani; [11]): 64.0 ppm | Minimum Inhibitory Concentration, Mixture (Fusarium solani; [13]): 13.3 ppm | Minimum Inhibitory Concentration, Compound Used Alone (Gliocladium virens; [11]): 80.0 ppm | Minimum Inhibitory Concentration, Mixture (Gliocladium virens; concentration of the component in ZP+PB mixture, ZP/PB ratio 1-2): 24.0 ppm | Minimum Inhibitory Concentration, Compound Used Alone (Penicillin pinophilium; [11]): 16.0 ppm | Minimum Inhibitory Concentration, Mixture (Penicillin pinophilium; concentration of the component in ZP+PB mixture, ZP/PB ratio 1/8): 4.0 ppm | Minimum Inhibitory Concentration, Compound Used Alone (Proteus mirabilis [2]; [11]): 4.0 ppm | Minimum Inhibitory Concentration, Mixture (Proteus mirabilis [2]; concentration of the component in ZP+PB mixture, ZP/PB ratio 1/32): 2.0 ppm | Minimum Inhibitory Concentration, Compound Used Alone (Pseudomonas Stutzeri; [11]): 4.0 ppm | Minimum Inhibitory Concentration, Mixture (Pseudomonas Stutzeri; concentration of the component in ZP+PB mixture, ZP/PB ratio 16-128): 4.0 ppm | Minimum Inhibitory Concentration, Compound Used Alone (Pseudomonas aeruginosa [3]; [11]): 288.0 ppm | Minimum Inhibitory Concentration, Mixture (Pseudomonas aeruginosa [3]; concentration of the component in ZP+PB mixture, ZP/PB ratio 128-256): 112.0 ppm | Minimum Inhibitory Concentration, Compound Used Alone (Pseudomonas fluorescens [4]; [11]): 106.7 ppm | Minimum Inhibitory Concentration, Mixture (Pseudomonas fluorescens [4]; concentration of the component in ZP+PB mixture, ZP/PB ratio 8-16): 4.7 ppm | Minimum Inhibitory Concentration, Compound Used Alone (Pseudomonas oleovorans; [11]): 6.7 ppm | Minimum Inhibitory Concentration, Mixture (Pseudomonas oleovorans; concentration of the component in ZP+PB mixture, ZP/PB ratio 16-32): 4.0 ppm | Minimum Inhibitory Concentration, Compound Used Alone (Pseudomonas rubescens; [11]): 3.3 ppm | Minimum Inhibitory Concentration, Mixture (Pseudomonas rubescens; concentration of the component in ZP+PB mixture, ZP/PB ratio 256): 3.3 ppm | Minimum Inhibitory Concentration, Compound Used Alone [5, 11]: 8.0 ppm | Minimum Inhibitory Concentration, Mixture ([5]; concentration of the component in ZP+PB mixture, ZP/PB ratio 1/4-1/2): 8.0 ppm | Minimum Inhibitory Concentration, Compound Used Alone (Fusarium sp.; [11]): 64.0 ppm | Minimum Inhibitory Concentration, Mixture (Fusarium sp.; [13]): 18.7 ppm | Minimum Inhibitory Concentration, Compound Used Alone (Candida albicans [6]; [14]): 16 ppm | Minimum Inhibitory Concentration, Mixture Range (Candida albicans [6]; concentration of the component in ZP+PE mixtures, ZP/PE range 1/2048-1/4): 1-8 ppm | Minimum Inhibitory Concentration, Compound Used Alone (Proteus mirabilis [7]; [14]): 8 ppm | Minimum Inhibitory Concentration, Mixture Range (Proteus mirabilis [7]; concentration of the component in ZP+PE mixtures, ZP/PE range 1/1024): 4 ppm | Minimum Inhibitory Concentration, Compound Used Alone (Pseudomonas aeruginosa [8]; [14]): 128 ppm | Minimum Inhibitory Concentration, Mixture Range (Pseudomonas aeruginosa [8]; concentration of the component in ZP+PE mixtures, ZP/PE range 2-8): 16-32 ppm | Minimum Inhibitory Concentration, Compound Used Alone (Pseudomonas fluorescens [9]; [14]): 64 ppm | Minimum Inhibitory Concentration, Mixture Range (Pseudomonas fluorescens [9]; concentration of the component in ZP+PE mixtures, ZP/PE range ≤1/128-4): ≤1-16 ppm | Minimum Inhibitory Concentration, Compound Used Alone [10, 14]: 16 ppm | Minimum Inhibitory Concentration, Mixture Range ([10]; concentration of the component in ZP+PE mixtures, ZP/PE range 1/4-4): 8-16 ppm
